We go through 5 compounds from patent publication US12252524B2, “GIP/GLP1 co-agonist compounds” (Eli Lilly and Company, priority 2018, dated 2025).

Numbered stars: 1 amine (or outer) side, 2 acyl side, 3 side chain; on linkers, the order of the positions; unused ones are H or OH. Square brackets hold non-standard residues; d marks the D form. Side chains are listed from the residue outwards. Peptide text beside a SMILES is read from it. * marks the point of attachment. C20 diacid = O=C(O)CCCCCCCCCCCCCCCCCCC(=O)*; γGlu = O=C(O)[C@H](CCC(=O)[*:2])N[*:1]; αMeY = C[C@](N)(Cc1ccc(O)cc1)C(=O)O; αMeL = CC(C)C[C@](C)(N)C(=O)O; Orn = NCCC[C@H](N)C(=O)O; Dap = NC[C@H](N)C(=O)O; AEEA = NCCOCCOCC(=O)O; Aib = CC(C)(N)C(=O)O

In assay [1] the target is human GLP-1 receptor (GLP-1R) (Homo sapiens, UniProt P43220). Briefly: cAMP pharmacological functional assay in presence of casein, hGLP-1R. Type of assay: cell-based. Conditions: HEK293 cells expressing hGLP-1R, 0.1% Casein, geometric mean; read-out: hGLP1R cAMP Rel EC50 nM (SEM, n).
human GLP-1 receptor (GLP-1R), sequence (P43220 24-463): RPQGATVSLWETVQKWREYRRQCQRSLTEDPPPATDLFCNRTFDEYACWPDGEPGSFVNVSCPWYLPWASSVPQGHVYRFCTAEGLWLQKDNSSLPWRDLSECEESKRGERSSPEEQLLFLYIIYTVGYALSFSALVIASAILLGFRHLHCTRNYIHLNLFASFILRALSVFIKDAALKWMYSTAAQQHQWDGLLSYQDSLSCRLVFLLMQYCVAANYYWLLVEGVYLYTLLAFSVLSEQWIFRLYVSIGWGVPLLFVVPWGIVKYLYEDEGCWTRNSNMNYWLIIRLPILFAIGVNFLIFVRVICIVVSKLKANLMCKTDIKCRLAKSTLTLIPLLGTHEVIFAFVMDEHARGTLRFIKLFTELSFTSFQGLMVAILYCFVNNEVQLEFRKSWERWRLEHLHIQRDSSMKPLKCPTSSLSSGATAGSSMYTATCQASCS
Assay [2] has as its target T1, gastric inhibitory peptide receptor (GIPR) (Homo sapiens, UniProt P48546).
T1 sequence (P48546 22-466): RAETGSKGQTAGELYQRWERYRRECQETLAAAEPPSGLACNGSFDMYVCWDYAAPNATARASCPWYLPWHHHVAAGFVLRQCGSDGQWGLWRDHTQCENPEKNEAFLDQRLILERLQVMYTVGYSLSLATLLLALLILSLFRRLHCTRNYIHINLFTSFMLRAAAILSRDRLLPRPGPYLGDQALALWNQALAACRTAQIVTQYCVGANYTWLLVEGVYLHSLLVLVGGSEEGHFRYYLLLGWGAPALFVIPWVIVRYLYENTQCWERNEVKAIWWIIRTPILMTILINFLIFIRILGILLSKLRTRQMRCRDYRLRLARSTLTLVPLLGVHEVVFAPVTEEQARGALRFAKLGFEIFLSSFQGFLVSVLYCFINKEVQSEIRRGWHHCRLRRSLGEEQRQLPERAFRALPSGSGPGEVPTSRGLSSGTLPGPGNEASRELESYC
Put plainly: cAMP pharmacological functional assay in presence of casein, hGIPR. It counts as cell-based. The note with it: HEK293 cells expressing hGIPR, 0.1% Casein, geometric mean; read-out: hGIPR cAMP Rel EC50 nM (SEM, n).

In assay [3] the target is T2, human GLP-1R (Homo sapiens, UniProt P43220). Put plainly: GLP-1R CHO cell β-arrestin recruitment assay. Type of assay: cell-based. Also on record: host or cells: CHO-K1 PathHunter cells, assay-ready frozen. Conditions: for EC50: CHO-K1 cells, PathHunter β-arrestin-2 recruitment, 0.1% casein, read-out: hGLP1R B-Arrestin2 Rel EC50 uM (SEM, n); for hGLP1R B-Arrestin2 % Top: normalized to GLP-1 maximum control. The essentials:
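PathHunter CHO-K1 cells with ProLink-tagged human GLP-1R and enzyme-acceptor-tagged β-arrestin-2 treated with serially diluted peptides in assay buffer containing 0.1% hydrolyzed casein, 90 min at 37 °C.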

Assay [4] deals with T2, human GLP-1R. Briefly: GLP-1R HEK293 cell membrane [35S]GTPγS binding assay. Type of assay: biochemical. Details: expressed in transfected cells; host or cells: HEK293 cells expressing human GLP-1R; membranes. The note with it: HEK293 cell membranes expressing human GLP-1R, [35S]GTPγS binding; read-out: hGLP1R GTPgS Rel EC50 nM (SEM, n). The essentials: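 Membranes from HEK293 cells expressing the receptor incubated with peptide and […] [35S]GTPγS in HEPES pH 7.4 buffer with NaCl, MgCl2, saponin and BSA, 30 min at room temperature. Gαs-bound label captured by anti-Gαs antibody/SPA beads and counted; EC50 from four-parameter logistic fit.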

T2 sequence (P43220 24-463): as the sequence (P43220 24-463) above

In the case of `CC[C@H](C)[C@H](NC(=O)[C@H](CC(C)C)NC(=O)[C@H](Cc1ccc(O)cc1)NC(=O)[C@H](CCC(=O)O)NC(=O)[C@@H](NC(=O)[C@H](Cc1ccccc1)NC(=O)[C@H](CCC(=O)O)NC(=O)C(C)(C)NC(=O)[C@H](CCC(N)=O)NC(=O)[C@H](C)NC(=O)[C@H](CCCCNC(=O)COCCOCCNC(=O)COCCOCCNC(=O)CC[C@H](NC(=O)CCCCCCCCCCCCCCCCCCC(=O)O)C(=O)O)NC(=O)[C@H](CN)NC(=O)[C@H](CC(=O)O)NC(=O)[C@H](CC(C)C)NC(=O)[C@](C)(CC(C)C)NC(=O)[C@@H](NC(=O)[C@H](CO)NC(=O)[C@H](Cc1ccc(O)cc1)NC(=O)[C@H](CC(=O)O)NC(=O)[C@H](CO)NC(=O)[C@@H](NC(=O)[C@H](Cc1ccccc1)NC(=O)[C@@H](NC(=O)CNC(=O)[C@H](CCC(=O)O)NC(=O)C(C)(C)NC(=O)[C@H](N)Cc1ccc(O)cc1)[C@@H](C)O)[C@@H](C)O)[C@@H](C)CC)[C@@H](C)CC)C(=O)N[C@@H](C)C(=O)NCC(=O)NCC(=O)N1CCC[C@H]1C(=O)N[C@@H](CO)C(=O)N[C@@H](CO)C(=O)NCC(=O)N[C@@H](C)C(=O)N1CCC[C@H]1C(=O)N1CCC[C@H]1C(=O)N1CCC[C@H]1C(=O)N[C@@H](CO)C(N)=O` [Example 351] (H-[dY][Aib]EGTFTSDYSI[αMeL]LD[Dap]K([AEEA-AEEA-γGlu-C20 diacid])AQ[Aib]EFIEYLIAGGPSSGAPPPS-NH2), the concentration giving a half-maximal response (EC50) in assay [1] was found to be 0.149 nM; in assay [2], 0.298 nM; on human GLP-1R [3] it was 0.0196 µM; on human GLP-1R [4] it was 0.563 nM. Moreover, the “hGLP1R B-Arrestin2 % Top” value on human GLP-1R [3] amounted to 23.5%.
In the case of `CC[C@H](C)[C@H](NC(=O)[C@H](CC(C)C)NC(=O)[C@H](Cc1ccc(O)cc1)NC(=O)[C@@H](CCC(=O)O)NC(=O)[C@@H](NC(=O)[C@H](Cc1ccccc1)NC(=O)[C@H](CCC(=O)O)NC(=O)C(C)(C)NC(=O)[C@H](CCC(N)=O)NC(=O)[C@H](C)NC(=O)[C@H](CCCCNC(=O)COCCOCCNC(=O)COCCOCCNC(=O)CC[C@H](NC(=O)CCCCCCCCCCCCCCCCCCC(=O)O)C(=O)O)NC(=O)[C@H](CCCCN)NC(=O)[C@H](CC(=O)O)NC(=O)[C@H](CC(C)C)NC(=O)[C@](C)(CC(C)C)NC(=O)[C@@H](NC(=O)[C@H](CO)NC(=O)[C@H](Cc1ccc(O)cc1)NC(=O)[C@H](CC(=O)O)NC(=O)[C@H](CO)NC(=O)[C@@H](NC(=O)[C@H](Cc1ccccc1)NC(=O)[C@@H](NC(=O)CNC(=O)[C@H](CCC(=O)O)NC(=O)C(C)(C)NC(=O)[C@H](N)Cc1ccc(O)cc1)[C@@H](C)O)[C@@H](C)O)[C@@H](C)CC)[C@@H](C)CC)C(=O)N[C@@H](CCC(=O)O)C(=O)NCC(=O)NCC(=O)N1CCC[C@H]1C(=O)N[C@@H](CO)C(=O)N[C@@H](CO)C(=O)NCC(=O)N[C@@H](C)C(=O)N1CCC[C@H]1C(=O)N1CCC[C@H]1C(=O)N1CCC[C@H]1C(=O)N[C@@H](CO)C(N)=O` [Example 353] (H-[dY][Aib]EGTFTSDYSI[αMeL]LDKK([AEEA-AEEA-γGlu-C20 diacid])AQ[Aib]EFI[dE]YLIEGGPSSGAPPPS-NH2), the concentration for a half-maximal effect (EC50) in assay [1] was determined as 1.09 nM; in assay [2], 0.497 nM; at human GLP-1R [3] it was 0.559 µM; at human GLP-1R [4], 1.96 nM. Besides, the “hGLP1R B-Arrestin2 % Top” value on human GLP-1R [3] was found to be 23.0%.
For `CC[C@H](C)[C@H](NC(=O)[C@H](CC(C)C)NC(=O)[C@H](Cc1ccc(O)cc1)NC(=O)[C@@H](CCC(=O)O)NC(=O)[C@@H](NC(=O)[C@H](Cc1ccccc1)NC(=O)[C@H](CCC(=O)O)NC(=O)C(C)(C)NC(=O)[C@H](CCC(N)=O)NC(=O)[C@H](C)NC(=O)[C@H](CCCCNC(=O)COCCOCCNC(=O)COCCOCCNC(=O)CC[C@H](NC(=O)CCCCCCCCCCCCCCCCCCC(=O)O)C(=O)O)NC(=O)[C@H](CCCN)NC(=O)[C@H](CC(=O)O)NC(=O)[C@H](CC(C)C)NC(=O)[C@](C)(CC(C)C)NC(=O)[C@@H](NC(=O)[C@H](CO)NC(=O)[C@H](Cc1ccc(O)cc1)NC(=O)[C@H](CC(=O)O)NC(=O)[C@H](CO)NC(=O)[C@@H](NC(=O)[C@H](Cc1ccccc1)NC(=O)[C@@H](NC(=O)CNC(=O)[C@H](CCC(=O)O)NC(=O)C(C)(C)NC(=O)[C@H](N)Cc1ccc(O)cc1)[C@@H](C)O)[C@@H](C)O)[C@@H](C)CC)[C@@H](C)CC)C(=O)N[C@@H](CCC(=O)O)C(=O)NCC(=O)NCC(=O)N1CCC[C@H]1C(=O)N[C@@H](CO)C(=O)N[C@@H](CO)C(=O)NCC(=O)N[C@@H](C)C(=O)N1CCC[C@H]1C(=O)N1CCC[C@H]1C(=O)N1CCC[C@H]1C(=O)N[C@@H](CO)C(N)=O` [Example 355] (H-[dY][Aib]EGTFTSDYSI[αMeL]LD[Orn]K([AEEA-AEEA-γGlu-C20 diacid])AQ[Aib]EFI[dE]YLIEGGPSSGAPPPS-NH2), in that order: 0.896 nM, 0.685 nM, 0.363 µM, 1.76 nM and 18.3%.
For `CC[C@H](C)[C@H](NC(=O)[C@H](CC(C)C)NC(=O)[C@](C)(Cc1ccc(O)cc1)NC(=O)[C@H](CCC(=O)O)NC(=O)[C@@H](NC(=O)[C@H](Cc1ccccc1)NC(=O)[C@H](C)NC(=O)C(C)(C)NC(=O)[C@H](CCC(N)=O)NC(=O)[C@H](C)NC(=O)[C@H](CCCCNC(=O)COCCOCCNC(=O)COCCOCCNC(=O)CC[C@H](NC(=O)CCCCCCCCCCCCCCCCCCC(=O)O)C(=O)O)NC(=O)[C@H](CCCCN)NC(=O)[C@H](CC(=O)O)NC(=O)[C@H](CC(C)C)NC(=O)[C@](C)(CC(C)C)NC(=O)[C@@H](NC(=O)[C@H](CO)NC(=O)[C@H](Cc1ccc(O)cc1)NC(=O)[C@H](CC(=O)O)NC(=O)[C@H](CO)NC(=O)[C@@H](NC(=O)[C@H](Cc1ccccc1)NC(=O)[C@@H](NC(=O)CNC(=O)[C@H](CCC(=O)O)NC(=O)C(C)(C)NC(=O)[C@H](N)Cc1ccc(O)cc1)[C@@H](C)O)[C@@H](C)O)[C@@H](C)CC)[C@@H](C)CC)C(=O)N[C@@H](C)C(=O)NCC(=O)NCC(=O)N1CCC[C@H]1C(=O)N[C@@H](CO)C(=O)N[C@@H](CO)C(=O)NCC(=O)N[C@@H](C)C(=O)N1CCC[C@H]1C(=O)N1CCC[C@H]1C(=O)N1CCC[C@H]1C(=O)N[C@@H](CO)C(N)=O` [Example 365] (H-[dY][Aib]EGTFTSDYSI[αMeL]LDKK([AEEA-AEEA-γGlu-C20 diacid])AQ[Aib]AFIE[αMeY]LIAGGPSSGAPPPS-NH2), in that order: 0.175 nM, 0.0678 nM, 0.00703 µM, 0.464 nM and 20.8%.
On the same counts, the results for `CC[C@H](C)[C@H](NC(=O)[C@H](CC(C)C)NC(=O)[C@](C)(Cc1ccc(O)cc1)NC(=O)[C@H](CCC(=O)O)NC(=O)[C@@H](NC(=O)[C@H](Cc1ccccc1)NC(=O)[C@H](C)NC(=O)C(C)(C)NC(=O)[C@H](CCC(N)=O)NC(=O)[C@H](C)NC(=O)[C@H](CCCCNC(=O)COCCOCCNC(=O)COCCOCCNC(=O)CC[C@H](NC(=O)CCCCCCCCCCCCCCCCCCC(=O)O)C(=O)O)NC(=O)[C@H](CCCN)NC(=O)[C@H](CC(=O)O)NC(=O)[C@H](CC(C)C)NC(=O)[C@](C)(CC(C)C)NC(=O)[C@@H](NC(=O)[C@H](CO)NC(=O)[C@H](Cc1ccc(O)cc1)NC(=O)[C@H](CC(=O)O)NC(=O)[C@H](CO)NC(=O)[C@@H](NC(=O)[C@H](Cc1ccccc1)NC(=O)[C@@H](NC(=O)CNC(=O)[C@H](CCC(=O)O)NC(=O)C(C)(C)NC(=O)[C@H](N)Cc1ccc(O)cc1)[C@@H](C)O)[C@@H](C)O)[C@@H](C)CC)[C@@H](C)CC)C(=O)N[C@@H](C)C(=O)NCC(=O)NCC(=O)N1CCC[C@H]1C(=O)N[C@@H](CO)C(=O)N[C@@H](CO)C(=O)NCC(=O)N[C@@H](C)C(=O)N1CCC[C@H]1C(=O)N1CCC[C@H]1C(=O)N1CCC[C@H]1C(=O)N[C@@H](CO)C(N)=O` [Example 366] (H-[dY][Aib]EGTFTSDYSI[αMeL]LD[Orn]K([AEEA-AEEA-γGlu-C20 diacid])AQ[Aib]AFIE[αMeY]LIAGGPSSGAPPPS-NH2) are 0.366 nM, 0.0889 nM, 0.00557 µM, 0.409 nM and 21.2%.
